From US10183914B2 (BAYER CROPSCIENCE AKTIENGESELLSCHAFT, priority 2014, dated 2019)

Columns and labels:
Oryza sativa [1] = assay: Post-emergence herbicidal effect and crop plant compatibility; type: in vivo; conditions: visual scoring after about 3 weeks
Outline: (§1)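 Foliar treatment: wettable powder or emulsion concentrate diluted in water, 600 to 800 L/ha, with 0.2% wetting agent, sprayed at one leaf. Readout: percent damage judged visually after ~3 wk in greenhouse, relative to untreated plants.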

[2] = test system: Triticum aestivum (spring); assay: as above; type: in vivo; conditions: visual scoring after about 3 weeks
Outline: as §1

Zea mays [3] = assay: as above; type: in vivo; conditions: visual scoring after about 3 weeks
Outline: as §1

Brassica napus = assay: as above; type: in vivo; conditions: 80 g/ha, visual scoring after about 3 weeks
Outline: as §1

Matricaria inodora = assay: Pre-emergence herbicidal effect; type: in vivo; conditions: 320 g/ha, 3 weeks
Outline: (§2)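 Pre-emergence soil-surface application: WP or EC formulations in water (600 to 800 L/ha, 0.2% wetting agent) onto covered seeds in sandy loam. Plants kept under good greenhouse conditions. Damage rated visually at 3 weeks, 0% = control, 100% = dead.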

Viola tricolor = assay: Pre-emergence herbicidal effect; type: in vivo; conditions: 3 weeks
Outline: as §2

Veronica persica = assay: Pre-emergence herbicidal effect; type: in vivo; conditions: 3 weeks
Outline: as §2

Abutilon theophrasti = assay: Pre-emergence herbicidal effect; type: in vivo; conditions: 320 g/ha, 3 weeks
Outline: as §2

Setaria viridis = assay: Pre-emergence herbicidal effect; type: in vivo; conditions: 320 g/ha, 3 weeks
Outline: as §2

Lolium multiflorum = assay: Pre-emergence herbicidal effect; type: in vivo; conditions: 320 g/ha, 3 weeks
Outline: as §2

Stellaria media = assay: Pre-emergence herbicidal effect; type: in vivo; conditions: 320 g/ha, 3 weeks
Outline: as §2

Amaranthus retroflexus = assay: Pre-emergence herbicidal effect; type: in vivo; conditions: 320 g/ha, 3 weeks
Outline: as §2

Echinochloa crus-galli = assay: Pre-emergence herbicidal effect; type: in vivo; conditions: 320 g/ha, 3 weeks
Outline: as §2

Polygonum convolvulus = assay: Pre-emergence herbicidal effect; type: in vivo; conditions: 320 g/ha, 3 weeks
Outline: as §2

[4] = logp (HCOOH), physicochemical characterization
Oryza sativa [5] = assay: Pre-emergence herbicidal effect and crop plant compatibility; type: in vivo; conditions: 3 weeks
Outline: as §2

[6] = test system: Triticum aestivum (spring); assay: as above; type: in vivo; conditions: 3 weeks
Outline: as §2

Zea mays [7] = assay: as above; type: in vivo; conditions: 3 weeks
Outline: as §2

SMILES: Cc1ccc2c(c1)[C@H](Nc1ncc3c(n1)CC(c1ccc(F)cc1)CC3=O)[C@@H](C)C2 (some centres unmarked) [2.52]
- post-emergence efficacy ORYSA (Oryza sativa [1]; 80 g/ha): 0%
- post-emergence efficacy ORYSA (Oryza sativa [1]; 320 g/ha): 0%
- post-emergence efficacy TRZAS ([2]; 80 g/ha): 0%
- post-emergence efficacy TRZAS ([2]; 320 g/ha): 0%
- post-emergence efficacy ZEAMX (Zea mays [3]; 80 g/ha): 0%
- post-emergence efficacy ZEAMX (Zea mays [3]; 320 g/ha): 0%
- post-emergence efficacy BRSNW (Brassica napus): 20%
- MATIN herbicidal activity in percent (Matricaria inodora): 100%
- VIOTR herbicidal activity in percent (Viola tricolor; 80 g/ha): 100%
- VIOTR herbicidal activity in percent (Viola tricolor; 320 g/ha): 100%
- VERPE herbicidal activity in percent (Veronica persica; 80 g/ha): 90%
- VERPE herbicidal activity in percent (Veronica persica; 320 g/ha): 100%
- ABUTH herbicidal activity in percent (Abutilon theophrasti): 0%
- SETVI herbicidal activity in percent (Setaria viridis): 70%
- LOLMU herbicidal activity in percent (Lolium multiflorum): 90%
- STEME herbicidal activity in percent (Stellaria media): 100%
- AMARE herbicidal activity in percent (Amaranthus retroflexus): 100%
- ECHCG herbicidal activity in percent (Echinochloa crus-galli): 100%
- POLCO herbicidal activity in percent (Polygonum convolvulus): 60%
- logp (HCOOH) [4]: oily; logp (HCOOH): 4.87; 1H-NMR (CDCl3, 400 MHZ, δ in ppm): 1.25 (t, 3H, CH3);
- ORYSA herbicidal activity in percent (Oryza sativa [5]; 80 g/ha): 0%
- ORYSA herbicidal activity in percent (Oryza sativa [5]; 320 g/ha): 20%
- TRZAS herbicidal activity in percent ([6]; 80 g/ha): 0%
- TRZAS herbicidal activity in percent ([6]; 320 g/ha): 30%
- ZEAMX herbicidal activity in percent (Zea mays [7]; 80 g/ha): 0%
- ZEAMX herbicidal activity in percent (Zea mays [7]; 320 g/ha): 10%
